The values that follow come from patent US9458202B2, “Peptidomimetic macrocycles with improved properties” (Aileron Therapeutics, Inc., priority 2008, dated 2016).

One data set is described as follows: Figure 5. The text has this:
Table printed on a drawing sheet, Figure 5
The patent's description of the figure: FIG. 5 illustrates the PK profile in rat and monkey for a peptidomimetic macrocycle of the invention.
First reader's note: The first row combines the substance name (SP2) with the conditions dose, route and species in one cell.

Another data set is described as follows: circular dichroism. Further details: unit not given here. To be noted: 20 mM phosphoric acid; pH 2.0; 5 °C; 0.05 mg/mL. In general terms: Circular dichroism is the unequal absorption of left and right circularly polarised light.
The next data set in a line: Figure 2. Further details: AUCall: concentration or dose not given beside the values. The note with it: for C0 / half-life / MRT: Sprague-Dawley, rat, plasma, iv; for MRT: read-out: MRTinf_obs. The protocol: Table printed on a drawing sheet, Figure 2
Footnotes: 2 mg/mL iv bolus in Sprague-Dawley rats (10 mg/kg) / * 0.6 mg/mL iv bolus in Sprague-Dawley rats (3 mg/kg)
The patent's description of the figure: FIG. 2 lists the in vivo half-lives of peptidomimetic macrocycles of the invention. Half-lives were measured in Sprague Dawley rats after one intravenous bolus injection at 0.6 mg/mL or 2 mg/mL of each unlabeled peptidomimetic macrocycle at a 3 mg/kg or 10 mg/kg dose, respectively. Three animals were used per compound and concentrations were determined by mass-spectrometric analysis of blood levels (plasma).
First reader's note: An asterisk before the peptide name marks dosing at 3 mg/kg (0.6 mg/mL) instead of 10 mg/kg (2 mg/mL).

Where a SMILES comes first, the peptide text is derived from it. Bridges are numbered along the chain shown (N, C = ends). [ ]: non-standard residue; d: D form. S5 = C=CCCC[C@](C)(N)C(=O)O; Nle = CCCC[C@H](N)C(=O)O

On to `CC[C@H](C)[C@H](NC(C)=O)C(=O)N[C@@H](Cc1c[nH]c2ccccc12)C(=O)N[C@H](C(=O)N[C@@H](C)C(=O)N[C@@H](CCC(N)=O)C(=O)N[C@@H](CCC(=O)O)C(=O)N[C@@H](CC(C)C)C(=O)N[C@@H](CCCNC(=N)N)C(=O)N[C@@]1(C)CCCC=CCCC[C@@](C)(C(=O)N[C@@H](Cc2ccccc2)C(=O)N[C@@H](CC(N)=O)C(=O)N[C@@H](C)C(=O)N[C@@H](Cc2ccc(O)cc2)C(=O)N[C@@H](Cc2ccc(O)cc2)C(=O)N[C@@H](C)C(=O)N[C@@H](CCCNC(=N)N)C(=O)N[C@@H](CCCNC(=N)N)C(N)=O)NC(=O)[C@H](CC(=O)O)NC(=O)CNC(=O)[C@H]([C@@H](C)CC)NC1=O)[C@@H](C)CC` (single isomer, unassigned) [SP2 10 mg/kg IV rat], for which, in “Figure 5”, the “AUC all” value was determined as 170685 ng·h/mL, the maximum concentration (Cmax) (usually the peak of the concentration-time curve) came to 70325 ng/mL, the “MRTinf” value worked out at 3.1 h and the “T ½” value is 5.7 h.
In the data set “circular dichroism”, `CCCC[C@H](NC(=O)[C@H](CO)NC(=O)[C@H](CC(=O)O)NC(=O)CNC(=O)[C@@H](NC(=O)[C@H](CCC(N)=O)NC(=O)[C@H](C)NC(=O)[C@H](CC(C)C)NC(=O)[C@H](Cc1c[nH]cn1)NC(=O)[C@H](CCCNC(=N)N)NC(=O)[C@H](C)NC(=O)[C@@H](NC(=O)[C@H](CC(N)=O)NC(=O)[C@H](CCCNC(=N)N)NC(=O)[C@@H](NC(=O)[C@@H](NC(=O)[C@H](CC(=O)O)NC(C)=O)[C@@H](C)CC)[C@@H](C)CC)[C@@H](C)CC)C(C)C)C(=O)N[C@@H](CC(=O)O)C(=O)N[C@@H](CCCNC(=N)N)C(=O)N[C@@H](CO)C(=O)N[C@H](C(N)=O)[C@@H](C)CC` [*SP11] (Ac-DIIRNIARHLAQVGDS[Nle]DRSI-NH2) returned a helicity of -1890. Besides, in “Figure 2”, the “AUCall” value turned out to be 1136 ng·h/mL, the “Cl_obs” value amounted to 45.53 mL/min/kg, the C0 is 1080 ng/mL and the half-life (usually the time needed for the level to fall by half in the phase considered) is 1.3 h. Moreover, the MRT in “Figure 2” amounted to 1.6 h.
With `CCCC[C@H](NC(=O)[C@]1(C)CCCC=CCCCC2(CCCC=CCCC[C@@](C)(NC(=O)[C@H](C)NC(=O)[C@@H](NC(=O)[C@H](CC(N)=O)NC(=O)[C@H](CCCNC(=N)N)NC(=O)[C@@H](NC(=O)[C@@H](NC(=O)[C@H](CC(=O)O)NC(C)=O)[C@@H](C)CC)[C@@H](C)CC)[C@@H](C)CC)C(=O)N[C@@H](Cc3c[nH]cn3)C(=O)N[C@@H](CC(C)C)C(=O)N[C@@H](C)C(=O)N2)C(=O)N[C@@H](C(C)C)C(=O)NCC(=O)N[C@@H](CC(=O)O)C(=O)N1)C(=O)N[C@@H](CC(=O)O)C(=O)N[C@@H](CCCNC(=N)N)C(=O)N[C@@H](CO)C(=O)N[C@H](C(N)=O)[C@@H](C)CC` (some centres unmarked) [*SP13], in “circular dichroism”, the helicity was -5450. In addition, in “Figure 2”, the “AUCall” value amounted to 82965 ng·h/mL, the “Cl_obs” value was 0.44 mL/min/kg, the C0 was found to be 6100 ng/mL and the half-life is 9.5 h. Moreover, the MRT in “Figure 2” is 13.2 h.
`CCCC[C@H](NC(=O)[C@@]1(C)CCCC=CCCCC2(CCCC=CCCC[C@](C)(NC(=O)[C@H](C)NC(=O)[C@@H](NC(=O)[C@H](CC(N)=O)NC(=O)[C@H](CCCNC(=N)N)NC(=O)[C@@H](NC(=O)[C@@H](NC(=O)[C@H](CC(=O)O)NC(C)=O)[C@@H](C)CC)[C@@H](C)CC)[C@@H](C)CC)C(=O)N[C@@H](Cc3c[nH]cn3)C(=O)N[C@@H](CC(C)C)C(=O)N[C@@H](C)C(=O)N2)C(=O)N[C@@H](C(C)C)C(=O)NCC(=O)N[C@@H](CC(=O)O)C(=O)N1)C(=O)N[C@@H](CC(=O)O)C(=O)N[C@@H](CCCNC(=N)N)C(=O)N[C@@H](CO)C(=O)N[C@H](C(N)=O)[C@@H](C)CC` (some centres unmarked) [*SP14] showed a helicity in the data set “circular dichroism” of -5840. In the data set “Figure 2”, the “AUCall” value came out at 74344 ng·h/mL, the “Cl_obs” value is 0.727 mL/min/kg, the C0 came to 7200 ng/mL and the half-life is 6.7 h. The MRT in “Figure 2” turned out to be 8.7 h.
Compound `CC[C@H](C)[C@H](NC(C)=O)C(=O)N[C@@H](Cc1c[nH]c2ccccc12)C(=O)N[C@H](C(=O)N[C@@H](C)C(=O)N[C@@H](CCC(N)=O)C(=O)N[C@@H](C)C(=O)N[C@@H](CC(C)C)C(=O)N[C@@H](CCCNC(=N)N)C(=O)N[C@@H](CCCNC(=N)N)C(=O)N[C@H](C(=O)NCC(=O)N[C@@H](CC(=O)O)C(=O)N[C@@H](CCC(=O)O)C(=O)N[C@@H](Cc1ccccc1)C(=O)N[C@@H](CC(N)=O)C(=O)N[C@@H](C)C(=O)N[C@@H](Cc1ccc(O)cc1)C(=O)N[C@@H](Cc1ccc(O)cc1)C(=O)N[C@@H](C)C(=O)N[C@@H](CCCNC(=N)N)C(=O)N[C@@H](CCCNC(=N)N)C(N)=O)[C@@H](C)CC)[C@@H](C)CC` [*SP15] registered a helicity in the data set “circular dichroism” of -2000. In the data set “Figure 2”, the “AUCall” value was 8430 ng·h/mL, the “Cl_obs” value worked out at 7.467 mL/min/kg, the C0 came out at 48000 ng/mL and the half-life is 0.4 h. The MRT in “Figure 2” is 0.2 h.
Regarding `CC[C@H](C)[C@H](NC(C)=O)C(=O)N[C@@]1(C)CCCC=CCCC[C@@](C)(C(=O)N[C@@H](CC(C)C)C(=O)N[C@@H](CCCNC(=N)N)C(=O)N[C@@]2(C)CCCC=CCCC[C@@](C)(C(=O)N[C@@H](Cc3ccccc3)C(=O)N[C@@H](CC(N)=O)C(=O)N[C@@H](C)C(=O)N[C@@H](Cc3ccc(O)cc3)C(=O)N[C@@H](Cc3ccc(O)cc3)C(=O)N[C@@H](C)C(=O)N[C@@H](CCCNC(=N)N)C(=O)N[C@@H](CCCNC(=N)N)C(N)=O)NC(=O)[C@H](CC(=O)O)NC(=O)CNC(=O)[C@H]([C@@H](C)CC)NC2=O)NC(=O)[C@H](CCC(N)=O)NC(=O)[C@H](C)NC(=O)[C@H]([C@@H](C)CC)NC1=O` [*SP16], the helicity in “circular dichroism” was -14400. Further, in “Figure 2”, the “AUCall” value stood at 125889 ng·h/mL, the “Cl_obs” value is 0.4 mL/min/kg, the C0 is 22900 ng/mL and the half-life was 4.5 h. For the same compound, the MRT in “Figure 2” came out at 4.4 h.
Regarding `CC(=O)N[C@@H](CCC(N)=O)C(=O)N[C@@H](CO)C(=O)N[C@@]1(C)CCCC=CCCCC2(CCCC=CCCCCCC[C@@](C)(C(=O)N[C@@H](CCC(N)=O)C(=O)N[C@@H](CC(N)=O)C(N)=O)NC(=O)[C@H](CC(C)C)NC(=O)[C@H](CC(C)C)NC(=O)[C@H](CCCNC(=N)N)NC(=O)[C@H](Cc3c[nH]c4ccccc34)NC(=O)[C@H](CC(C)C)NC(=O)[C@H](CC(N)=O)NC2=O)NC(=O)[C@H](Cc2ccccc2)NC(=O)[C@H]([C@@H](C)O)NC(=O)[C@H](CCC(N)=O)NC1=O` (some centres unmarked) [*SP17], in “circular dichroism”, the helicity was -12300. In “Figure 2”, the “AUCall” value was 102958 ng·h/mL, the “Cl_obs” value is 0.995 mL/min/kg, the C0 stood at 72800 ng/mL and the half-life is 3.3 h. In the data set “Figure 2”, the MRT came to 3 h.
For `CC[C@H](C)[C@H](NC(C)=O)C(=O)N[C@@H](Cc1c[nH]c2ccccc12)C(=O)N[C@H](C(=O)N[C@@H](C)C(=O)N[C@]1(C)CCCC=CCCCC2(CCCC=CCCC[C@@](C)(C(=O)N[C@@H](Cc3ccccc3)C(=O)N[C@@H](CC(N)=O)C(=O)N[C@@H](C)C(=O)N[C@@H](Cc3ccc(O)cc3)C(=O)N[C@@H](Cc3ccc(O)cc3)C(=O)N[C@@H](C)C(=O)N[C@@H](CCCNC(=N)N)C(=O)N[C@@H](CCCNC(=N)N)C(N)=O)NC(=O)[C@H](CC(=O)O)NC(=O)CNC(=O)[C@H]([C@@H](C)CC)NC2=O)NC(=O)[C@H](CCCNC(=N)N)NC(=O)[C@H](CC(C)C)NC(=O)[C@H](C)NC1=O)[C@@H](C)CC` (some centres unmarked) [*SP20], in “circular dichroism”, the helicity was -19200. Besides, in “Figure 2”, the “AUCall” value was 15000 ng·h/mL, the “Cl_obs” value amounted to 3.017 mL/min/kg, the C0 is 1950 ng/mL and the half-life was 10.8 h. Further, the MRT in “Figure 2” amounted to 14.1 h.
`CC[C@H](C)[C@H](NC(C)=O)C(=O)N[C@@H](Cc1c[nH]c2ccccc12)C(=O)N[C@H](C(=O)N[C@@H](C)C(=O)N[C@@]1(C)CCCC=CCCCC2(CCCC=CCCCCCC[C@@](C)(C(=O)N[C@@H](Cc3ccc(O)cc3)C(=O)N[C@@H](Cc3ccc(O)cc3)C(=O)N[C@@H](C)C(=O)N[C@@H](CCCNC(=N)N)C(=O)N[C@@H](CCCNC(=N)N)C(N)=O)NC(=O)[C@H](CC(N)=O)NC(=O)[C@H](Cc3ccccc3)NC(=O)[C@H](CCC(=O)O)NC(=O)[C@H](CC(=O)O)NC(=O)CNC(=O)[C@H]([C@@H](C)CC)NC2=O)NC(=O)[C@H](CCCNC(=N)N)NC(=O)[C@H](CC(C)C)NC(=O)[C@H](C)NC1=O)[C@@H](C)CC` (some centres unmarked) [*SP21] yielded a helicity in “circular dichroism” of -11200. In the data set “Figure 2”, the “AUCall” value was 7000 ng·h/mL, the “Cl_obs” value is 6.977 mL/min/kg, the C0 turned out to be 1450 ng/mL and the half-life was 5.7 h. Further, the MRT in “Figure 2” is 6.6 h.
With `CCCC[C@H](NC(=O)[C@]1(C)CCCC=CCCC[C@](C)(NC(=O)[C@H](C)NC(=O)[C@H](CC(C)C)NC(=O)[C@H](Cc2c[nH]cn2)NC(=O)[C@H](CCCNC(=N)N)NC(=O)[C@H](C)NC(=O)[C@@H](NC(=O)[C@H](CC(N)=O)NC(=O)[C@H](CCCNC(=N)N)NC(=O)[C@@H](NC(=O)[C@@H](NC(=O)[C@H](CC(=O)O)NC(C)=O)[C@@H](C)CC)[C@@H](C)CC)[C@@H](C)CC)C(=O)N[C@@H](C(C)C)C(=O)NCC(=O)N[C@@H](CC(=O)O)C(=O)N1)C(=O)N[C@@H](CC(=O)O)C(=O)N[C@@H](CCCNC(=N)N)C(=O)N[C@@H](CO)C(=O)N[C@H](C(N)=O)[C@@H](C)CC` [SP1] (Ac-DIIRNIARHLA[S5]VGD[S5][Nle]DRSI-NH2; staple 12-16), the helicity in “circular dichroism” was -8150. In “Figure 2”, the “AUCall” value was determined as 268275 ng·h/mL, the “Cl_obs” value worked out at 0.737 mL/min/kg and the C0 stood at 154000 ng/mL.
